In US20220296627A1, “Cytidine Derivatives and Methods of Forming Cytidine Derivatives” (Aenorasis Commercial Company of Pharmaceutical and Medical …, priority 2019, published 2022):

Legend:
[1] = system: SW1573/WT wild type non-small lung human cell line; assay: Cell growth assay (SRB) in SW1573/WT; type: cell-based; conditions: for IC50: Homo sapiens, SW1573, SW 1573/WT; for Ratio of IC50 in the presence of dipyridamole / IC50 in the absence of dipyridamole / Ratio of IC50 in the presence of, compared to in the absence of, dipyridamole: SW 1573/WT; for Ratio of IC50 in the presence of dipyridamole / IC50 in the absence of dipyridamole: 4-N-acyl and 4-N-phosphoryl derivatives (Table 5); for Ratio of IC50 in the presence of, compared to in the absence of, dipyridamole: acetylated 4-N-acyl derivatives (Table 7)
Experimental: (§1) Biological activities of the Gemcitabine derivative (which may be referred to as analogues) described above were evaluated with two assays: • 1. Cell growth assay using the SRB assay in cell lines A549/WT, SW1573/WT, PANC-01 and BXPC-3. • 2. MTT assay in human bladder cancer cell line T-24
(§2) The following cell lines were tested: • A549/WT —wild type human lung adenocarcinoma cell line (1) • SW1573/WT —wild type non-small lung human cell line (2), • PANC-01—human pancreatic cancer cell line (3) • BXPC-3 -epithelial human pancreatic adenocarcinoma cells (4).
(§3) Dipyridamole inhibits adenosine uptake by erythrocytes platelets and endothelial cells in vitro and in vivo. Thus, the present inventors recruited dipyridamole as an inhibitor of the nucleoside transporters of the tumour cells to observe the behaviour of the presently described Gemcitabine derivatives.
(§4) From the IC50 of each compound in the presence of dipyridamole, by dividing it with the IC50 of each compound in the absence of dipyridamole, the present inventors calculated a ratio that compared the efficacy of the analogous presence of dipyridamole.
(§5) Ratio=IC50 in the presence of dipyridamole/IC50 in the absence of dipyridamole • FIG. 10. Ratio of IC50 of 4-N-acyl and 4-N-phosphoryl derivatives in the presence of, compared to in the absence of, dipyridamole, in four cell lines

[2] = system: BXPC-3 epithelial human pancreatic adenocarcinoma cells; assay: Cell growth assay (SRB) in BXPC-3; type: cell-based; conditions: for Ratio of IC50 in the presence of dipyridamole / IC50 in the absence of dipyridamole / Ratio of IC50 in the presence of, compared to in the absence of, dipyridamole: BXPC-3; for Ratio of IC50 in the presence of dipyridamole / IC50 in the absence of dipyridamole: 4-N-acyl and 4-N-phosphoryl derivatives (Table 5); for IC50: Homo sapiens, BXPC-3, BXPC-3; for Ratio of IC50 in the presence of, compared to in the absence of, dipyridamole: acetylated 4-N-acyl derivatives (Table 7)
Experimental: as §1, §2, §3, §4, §5

[3] = system: PANC-01 human pancreatic cancer cell line; assay: Cell growth assay (SRB) in PANC-01; type: cell-based; conditions: for Ratio of IC50 in the presence of dipyridamole / IC50 in the absence of dipyridamole: 4-N-acyl and 4-N-phosphoryl derivatives (Table 5); for IC50: Homo sapiens, Pancreatic cancer cell; for Ratio of IC50 in the presence of, compared to in the absence of, dipyridamole: acetylated 4-N-acyl derivatives (Table 7)
Experimental: as §1, §2, §3, §4, §5

Human plasma stability = type: in vitro ADME; conditions: 37° C., 24 hours incubation, 0.1 μM, triplicates
Experimental: Human plasma stability of 4-N-ethyl carbamate
1. The final concentration of 4-N-ethyl carbamate Gemcitabine in human plasma was 0.1 μM.
2. Each sample was studied in triplicates.
3. The time points during incubation in which the present inventors evaluated the concentration of derivative were: 0, 1, 2, 4, 18 and 24 hours (FIG. 16). The derivative was stable after 24 hours incubation (96% still remaining).
4. A calibration curve was designed in order to quantify the concentration of derivative in human plasma (FIG. 17). Five calibrators were used at concentrations range of 0.01, 0.05, 0.1, 0.2 and 0.4 μM. Coefficient of determination (r^2) was calculated 0.999418.
5. Accuracy in terms of trueness and precision was evaluated through the analysis of three replicates at three concentration levels (low: 0.025 μM, mid: 0.08 μM and high: 0.3 μM). The trueness was expressed as the percentage difference between the calculated concentrations and the theoretical prepared concentrations while precision was expressed as CV%.
6. LOQ was determined at 0.01 μM with trueness and precision 8.49% and 9.66% respectively and within the acceptable limits for LOQ (<20%).
FIG. 17. In vitro stability of Ethyl-(4-N-Gemcitabine) carbamate (derivative 1) after 24 h incubation in human plasma at 37° C.

[4] = system: A549/WT wild type human lung adenocarcinoma cell line; assay: Cell growth assay (SRB) in A549/WT; type: cell-based; conditions: for Ratio of IC50 in the presence of dipyridamole / IC50 in the absence of dipyridamole / Ratio of IC50 in the presence of, compared to in the absence of, dipyridamole: A549/WT; for Ratio of IC50 in the presence of dipyridamole / IC50 in the absence of dipyridamole: 4-N-acyl and 4-N-phosphoryl derivatives (Table 5); for IC50: Homo sapiens, A549, A549/WT; for Ratio of IC50 in the presence of, compared to in the absence of, dipyridamole: acetylated 4-N-acyl derivatives (Table 7)
Experimental: as §1, §2, §3, §4, §5

[5] = Photolysis under UV irradiation (absorption spectrum); type: physicochemical; conditions: 10 μM in MeOH, UV lamp at 366 nm for 240 minutes, room temperature
Description: After ultraviolet irradiation at a specific photo-digested group wavelength in the range from 350 to 500 nm (or greater than 700 nm when utilising two photon excitation), the active form of the encapsulated molecule is released irreversibly. Photo-inclusion has often been performed in vitro for the spatio-temporal control of biological processes and the release of light-induced payload. […] The present inventors believe that this dual strategy is of great value for therapeutic applications while it requires non-invasive and space-time drug activation. In order to show this dual drug release mechanism, the present inventors performed photolysis experiments (FIG. 2).
The spectra of derivative 7 (10 μM) and Gemcitabine (5 μM) were recorded on a Perkin Elmer Lambda 25 spectrometer at room temperature. The samples were solubilized in MeOH grade HPLC grade and irradiated with UV lamp at 366 nm for 240 minutes. The present inventors noticed that in the range of 280-290 nm and 320-330 nm there is a decrease in the absorption intensity and at the same time there is an increase in intensity to 250-270 nm. […] This theory is supported by the increase in the band corresponding to Gemcitabine.

[6] = system: human bladder cancer cell line T-24; assay: MTT assay, cell viability of T-24 cells; type: cell-based; conditions: 100 μM; for inhibition of cell growth (cell viability, MTT), order of potency: 5000 cells/well; for cell viability (MTT), most potent derivatives: 10000 cells/well
Experimental: as §1
The cell viability of T-24 bladder cancer cells upon treatment with the Gemcitabine derivatives was evaluated using the MTT assay. T24 cancer cells were cultured in DMEM (Gibco) high glucose supplemented with 10% FBS and 1% Penicillin/Streptomycin (100 U/mL Penicillin and 100 μg/mL Streptomycin), at 37 ° C. in humidified atmosphere of 5% CO2.
For the MTT assay 5000 or 10000 cells were seeded in triplicates in 96-well plates. Stock solutions of each derivative were prepared in DMSO/EtOH (1:1 v/v). Then, the cells were treated and incubated with 100 μM of each compound for 24 or 48 hours. After the completion of the incubation time, 10 μL of MTT solution (5 mg/ml in PBS buffer) were added in each well and incubated for 4 hrs. Finally, to stop the reaction, the supernatant from each well was removed and 100 μL of stop mix solution (20% SDS in 50% dimethyl formamide in water) were added. The plate remained in darkness for 2 h and the absorbance was measured at 540 nm via a microplate ELISA reader (Awareness Technology Inc.) with a reference at 630 nm. The % cell viability for each compound was calculated relatively to the absorbance of the untreated cells (control).
Two sets of experiments were performed at concentrations of 100 μM, and the absorption of formazan was measured after 24 and 48 hours.
Another experiment was conducted with the MTT assay where the compounds were incubated for 48 hours at […] derivative concentration where the number of cells seeded per well was 10000.

[7] = 4-N-acyl and 4-N-phosphoryl derivatives (Table 4)
[8] = acetylated 4-N-acyl derivatives (Table 6)

SMILES	IC50 [1, 7] [nM]	Ratio of IC50 in the presence of dipyridamole / IC50 in the absence of dipyridamole [1]	Ratio of IC50 in the presence of dipyridamole / IC50 in the absence of dipyridamole [2]	IC50 [2, 7] [nM]	Ratio of IC50 in the presence of dipyridamole / IC50 in the absence of dipyridamole [3]	IC50 [3, 7] [nM]	Ratio of IC50 in the presence of dipyridamole / IC50 in the absence of dipyridamole [4]	IC50 [4, 7] [nM]	IC50 [1, 8] [nM]	Ratio of IC50 in the presence of, compared to in the absence of, dipyridamole [1]	Ratio of IC50 in the presence of, compared to in the absence of, dipyridamole [2]	IC50 [2, 8] [nM]	IC50 [3, 8] [nM]	Ratio of IC50 in the presence of, compared to in the absence of, dipyridamole [3]	Ratio of IC50 in the presence of, compared to in the absence of, dipyridamole [4]	IC50 [4, 8] [nM]	inhibition of cell growth (cell viability, MTT), order of potency ([6]; 24 hours)	inhibition of cell growth (cell viability, MTT), order of potency ([6]; 48 hours)	cell viability (MTT), most potent derivatives ([6]; 48 hours)	also measured
CCOC(=O)Nc1ccn(C2OC(CO)C(O)C2(F)F)c(=O)n1 (stereo not shown) [Derivative 1, Ethyl-(4-N-Gemcitabine) carbamate]	1150	21	23.2	860	4.1	3900	16.2	1600												still remaining after incubation in human plasma (Human plasma stability): 96%
COc1cc(COC(=O)Nc2ccn(C3OC(CO)C(O)C3(F)F)c(=O)n2)c([N+](=O)[O-])cc1OC (stereo not shown) [Derivative 7, (4,5-dimethoxy)-2-nitrobenzyl-(4-N-Gemcitabine) carbamate]	440	11	13.9	230	3.3	1500	14.2	460												photolysis on irradiation (absorption spectrum over time) [5]: release of Gemcitabine
O=C(Nc1ccn(C2OC(CO)C(O)C2(F)F)c(=O)n1)OCc1cn(C2=CC3C=CC(O)=CC3OC2=O)nn1 (stereo not shown) [Derivative 11, (1-(7-hydroxy-2-oxo-4a,8a-dihydro-2H-chromen-3-yl)-1H-1,2,3-triazol-4-yl) methyl-4-N-Gemcitabine carbamate]	420	11.9	25	200	4.6	1600	11	430									greater potency than the parent drug Gemcitabine	17>4>11 and then Gemcitabine	most potent	
CCCCOC(=O)Nc1ccn(C2OC(COC(C)=O)C(OC(C)=O)C2(F)F)c(=O)n1 (stereo not shown) [Derivative 14]									2800	1.4	1.77	1350	6500	0.9	0.83	3100			most potent	

The next lines start with results.

IC50 [1, 7] [nM]	Ratio of IC50 in the presence of dipyridamole / IC50 in the absence of dipyridamole [1]	Ratio of IC50 in the presence of dipyridamole / IC50 in the absence of dipyridamole [2]	IC50 [2, 7] [nM]	Ratio of IC50 in the presence of dipyridamole / IC50 in the absence of dipyridamole [3]	IC50 [3, 7] [nM]	Ratio of IC50 in the presence of dipyridamole / IC50 in the absence of dipyridamole [4]	IC50 [4, 7] [nM]	IC50 [1, 8] [nM]	Ratio of IC50 in the presence of, compared to in the absence of, dipyridamole [1]	Ratio of IC50 in the presence of, compared to in the absence of, dipyridamole [2]	IC50 [2, 8] [nM]	IC50 [3, 8] [nM]	Ratio of IC50 in the presence of, compared to in the absence of, dipyridamole [3]	Ratio of IC50 in the presence of, compared to in the absence of, dipyridamole [4]	IC50 [4, 8] [nM]	SMILES	inhibition of cell growth (cell viability, MTT), order of potency ([6]; 24 hours)	inhibition of cell growth (cell viability, MTT), order of potency ([6]; 48 hours)	cell viability (MTT), most potent derivatives ([6]; 48 hours)	also measured
								140		3.5	95	700	1.8	2.4	2000	CC(=O)OCC1OC(n2ccc(NC(=O)OCCl)nc2=O)C(F)(F)C1OC(C)=O (stereo not shown) [Derivative 17]	greater potency than the parent drug Gemcitabine	17>4>11 and then Gemcitabine		
11	22.7	26.6	9	3.4	52	15	18	9.6	1	24.3	13	31	7.4	18	15	Nc1ccn([C@@H]2O[C@H](CO)[C@@H](O)C2(F)F)c(=O)n1 [Gemcitabine, 2′,2′-difluoro-2′-deoxycytidine, reference compound]		17>4>11 and then Gemcitabine		
